From patent US6362163B1, “Parathyroid hormone-related peptide analogs” (The General Hospital Corporation, priority 1996, dated 2002)

Assays:
PTH/PTHrP receptor [1] = target: T1, PTH/PTHrP receptor (Homo sapiens, UniProt Q03431); assay: Competition radioligand binding, COS-7 cells transfected with human PTH/PTHrP receptor
T1 construct: expressed in transfected cells; host or cells: COS-7 cells, transient transfection, vector pcDNA-1
T1 sequence (Q03431 27-593): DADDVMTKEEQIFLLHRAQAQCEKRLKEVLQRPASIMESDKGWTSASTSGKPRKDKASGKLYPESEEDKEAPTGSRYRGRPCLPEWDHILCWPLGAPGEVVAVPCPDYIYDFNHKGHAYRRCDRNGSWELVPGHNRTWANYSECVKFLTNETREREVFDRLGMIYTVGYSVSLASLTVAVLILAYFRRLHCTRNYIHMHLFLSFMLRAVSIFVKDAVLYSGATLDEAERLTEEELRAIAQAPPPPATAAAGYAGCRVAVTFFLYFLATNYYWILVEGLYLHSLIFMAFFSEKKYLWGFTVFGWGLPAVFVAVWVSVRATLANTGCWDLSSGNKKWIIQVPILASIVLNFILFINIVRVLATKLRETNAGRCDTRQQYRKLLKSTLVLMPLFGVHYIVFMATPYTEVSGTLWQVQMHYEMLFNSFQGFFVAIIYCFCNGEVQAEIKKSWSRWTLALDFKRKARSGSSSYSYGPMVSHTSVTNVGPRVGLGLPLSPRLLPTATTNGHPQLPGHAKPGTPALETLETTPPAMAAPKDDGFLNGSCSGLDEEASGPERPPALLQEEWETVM
Protocol: (§1) The cDNAs encoding the human PTH/PTHrP receptor (Schipani, E. et al., Endocrinology 132:2157-2165 (1993)) and the human PTH-2 receptor (Usdin, T. et al., J. Biol. Chem. 270:15455-15458 (1995)) were carried on the expression vectors pcDNA-1 and pcDNAI/Amp (InVitrogen, San Diego, Calif.), respectively. COS-7 cells were cultured and transfected as described previously (Lee, C. et al., Mol. Endocrinol. 9:1269-1278 (1995)). Cells were transfected in 24-well plates using plasmid DNA (200 ng/well) purified by cesium chloride/ethidium bromide gradient centrifugation. Ligand binding and cAMP accumulation assays were performed three days after transfection, by which time the cell density reached 500,000±100,000 cells/well.
(§2) Binding reactions were performed as described previously. Id. Each well (final volume: […]) contained 26 fmole of ^125I-[Nle^8,21,Tyr^34]rPTH(1-34)NH2 (100,000 CPM) and various amounts (0.4-300 pmole) of an unlabeled competitor ligand, both diluted in binding buffer (50 mM Tris-HCl, pH 7.7, 100 mM NaCl, 5 mM KCl, 2 mM CaCl, 5% heat-inactivated horse serum, 0.5% heat-inactivated fetal bovine serum). Incubations were at room temperature for 2 hours, except for experiments involving Scatchard analysis, which were performed at 4° C. for 6 hours. At the end of the binding reaction, the cells were rinsed 3 times with 0.5 ml of binding buffer, lysed with 0.5 ml of 5M NaOH, and the entire lysate was counted. Nonspecific binding of tracer (NSB), determined in wells containing 1 μM of [NleTyr^8,21,Tyr^34]rPTH-(1-34)NH2, was ˜1% of total counts added. Maximum specific binding (B0) was calculated as the total radioactivity bound to cells in the absence of unlabeled PTH ligand, minus NSB. […] For Scatchard analyses, homologous competition binding studies were performed that used ^125I-[-NleTyr^8,21,Tyr^34]rPTH-(1-34)NH2 (26 fmole/well) and varying amounts (1.2-300 pmol) of the same unlabeled ligand. Estimates of the number of receptors/cell derived from these studies assumed a single class of binding sites and a transfection efficiency of 20% (Abou-Samra, A. B. et al., Proc. Natl. Acad. Sci (USA) 89:2732-2736 (1992)).

PTH-2 receptor [2] = target: T2, PTH-2 receptor (Homo sapiens, UniProt P49190); assay: Competition radioligand binding, COS-7 cells transfected with human PTH-2 receptor
T2 construct: expressed in transfected cells; host or cells: COS-7 cells, transient transfection, vector pcDNAI/Amp
Protocol: as §1, §2

PTH/PTHrP receptor [3] = target: T1, PTH/PTHrP receptor; assay: Ligand-induced intracellular cAMP accumulation, COS-7 cells expressing human PTH/PTHrP receptor; type: cell-based; settings: for cAMP agonist activity in words, PTH/PTHrP receptor: COS-7 cells; for cAMP accumulation Maximum, PTH/PTHrP receptor: highest level of cAMP attained, basal 4.6 ± 0.2 not subtracted, 1h at room temperature
Protocol: as §1
(§3) Transfected COS-7 cells were rinsed with […] of binding buffer. 200 μl of IBMX buffer (DMEM containing 2 mM IBMX, 1 mg/ml bovine serum albumin, 35 mM Hepes-NaOH, pH 7.4) and […] of binding buffer or binding buffer containing various amounts of a PTH or PTHrP analog were then added. The plates were incubated for 60 minutes at room temperature. The buffer was then withdrawn and the cells lysed by placing the plates on powdered dry ice and adding 0.5 ml of 50 mM HCl. The acid lysate was diluted 1/30 in dH2O, and an aliquot (5-50 μl) analyzed for cAMP content by radioimmunoassay. […] The cells were then incubated for 30 minutes at room temperature, and the resulting intracellular cAMP was measured by RIA. Data were analyzed using the AssayZap software (Elsevier Science Publishers BV, Cambridge, United Kingdom).

PTH-2 receptor [4] = target: T2, PTH-2 receptor; assay: Ligand-induced intracellular cAMP accumulation, COS-7 cells expressing human PTH-2 receptor; type: cell-based; settings: for cAMP agonist activity in words, PTH-2 receptor: COS-7 cells; for cAMP accumulation Maximum, PTH-2 receptor: highest level of cAMP attained, basal 5.4 ± 0.3 not subtracted, 1h at room temperature
Protocol: as §1, §3

PTH-2 receptor [5] = target: T2, PTH-2 receptor; assay: Antagonism of PTH-(1-34)-induced cAMP formation, COS-7 cells expressing PTH-2 receptor; type: cell-based; settings: IBMX, 30 minutes at room temperature
Protocol: (§4) FIGS. 7A and 7B depicts the antagonism of PTH-(1-34)-induced cAMP formation in COS-7 cells expressing PTH/PTHrP or PTH-2 receptors. […] The corresponding basal cAMP levels in cells not treated with peptide were […] pmoles/well, respectively. Data are the mean (±s.e.m.) of two experiments, each performed in duplicate.
as §3

PTH/PTHrP receptor [6] = target: T1, PTH/PTHrP receptor; assay: Antagonism of PTH-(1-34)-induced cAMP formation, COS-7 cells expressing PTH/PTHrP receptor; type: cell-based; settings: IBMX, 30 minutes at room temperature
Protocol: as §4, §3

[7] = agonist [Tyr34]hPTH-(1-34)NH2 1 nM
[8] = competition with radioligand, COS-7 cells

T2 sequence (P49190 25-550): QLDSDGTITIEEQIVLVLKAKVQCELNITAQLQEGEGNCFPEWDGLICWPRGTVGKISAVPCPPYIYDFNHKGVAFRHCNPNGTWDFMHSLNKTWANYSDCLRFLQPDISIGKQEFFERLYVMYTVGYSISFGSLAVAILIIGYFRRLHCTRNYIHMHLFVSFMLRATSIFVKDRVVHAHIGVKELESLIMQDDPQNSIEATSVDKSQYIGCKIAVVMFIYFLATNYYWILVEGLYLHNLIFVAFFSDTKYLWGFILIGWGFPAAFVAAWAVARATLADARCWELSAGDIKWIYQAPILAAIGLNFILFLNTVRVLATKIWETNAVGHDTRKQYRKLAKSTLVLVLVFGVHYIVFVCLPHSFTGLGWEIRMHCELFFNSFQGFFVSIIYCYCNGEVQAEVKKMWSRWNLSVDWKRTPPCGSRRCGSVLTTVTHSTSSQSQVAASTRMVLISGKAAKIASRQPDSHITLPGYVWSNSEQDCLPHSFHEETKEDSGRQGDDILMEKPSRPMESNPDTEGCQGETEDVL

Substance | Binding affinity, fold stronger than PTHrP-(1-36) (PTH/PTHrP receptor [1]; PTH/PTHrP receptor) [fold] | Enhancement of binding potency compared to PTHrP-(1-36) (PTH-2 receptor [2]; PTH-2 receptor) [fold] | cAMP agonist activity in words, PTH/PTHrP receptor (PTH/PTHrP receptor [3]) | cAMP accumulation Maximum, PTH/PTHrP receptor (PTH/PTHrP receptor [3]) [pmoles/well] | cAMP agonist activity in words, PTH-2 receptor (PTH-2 receptor [4]) | cAMP accumulation Maximum, PTH-2 receptor (PTH-2 receptor [4]) [pmoles/well] | Inhibition of PTH-(1-34)-induced cAMP activity in words, PTH-2 receptor (PTH-2 receptor [5]; [7]) | Effect on PTH-(1-34)-induced cAMP response in words, PTH/PTHrP receptor (PTH/PTHrP receptor [6]; [7]) | Binding potency, fold more potent than PTHrP-(1-36) (PTH/PTHrP receptor [1]; PTH/PTHrP receptor, inhibition of radioligand binding) [fold] | Binding in words, PTH/PTHrP receptor (PTH/PTHrP receptor [1]; [8]) | Binding in words, PTH-2 receptor (PTH-2 receptor [2]; [8]) | cAMP level in cells treated with agonist alone, PTH-2 receptor (PTH-2 receptor [5]; 1 nM) [pmoles/well] | cAMP level in cells treated with agonist alone, PTH/PTHrP receptor (PTH/PTHrP receptor [6]; 1 nM) [pmoles/well]
[Trp^23,Tyr^36]hPTHrP-(1-36) [[W23, Y36]hPTHrP-(1-36)NH2] | 6 | 71 | potent agonist | 123 ± 14 | inactive | 12 ± 1 | at least as potent as [Leu^11,D-Trp^12]hPTHrP(7-34)NH2 | not an antagonist, but instead augmented the agonist response to PTH-(1-34) | – | – | – | – | –
[Tyr^34]hPTH-(1-34)NH2 [[Y34]hPTH-(1-34)NH2, reference compound] | – | – | full and potent agonists | 113 ± 13 | potent agonist | 81 ± 5 | – | – | 4.8 | fully inhibited binding of the radioligand | bound with high apparent affinity | 70±8 | 167±17
